Source: patent US10189803B2, “Synthesis of therapeutic and diagnostic drugs centered on regioselective and stereoselective ring opening of aziridinium ions” (ILLINOIS INSTITUTE OF TECHNOLOGY, priority 2008, dated 2019)
Entries after “also recorded” stand apart in the source; their conditions may differ.

What was measured:
[1] = In vitro serum stability of radiolabeled C-NE3TA complexes in human serum (SE-HPLC); assay type: in vitro ADME
Description: C-NE3TA was radiolabeled with ^90Y, ^177Lu, ^203Pb, ^205/6Bi, or ^153Gd as previously described (Chong, H. S.; Milenic, D. E.; Garmestani, K.; Brady, E. D.; Arora, H.; Pfiester, C.; Brechbiel, M. W., Nucl. Med. Biol. 2006, 33, 459-67; Chong H S, Garmestani K, Bryant Jr., L H Milenic D E, Overstreet T, Birch N, Le N, Brady E D, Brechbiel M W. J. Med. Chem. 2006, 49, 2055-2062). In vitro serum stability of the radiolabeled complexes purified via ion-exchange chromatography was performed to determine if C-NE3TA labeled with the radioisotopes remained stable without transchelation or loss of their respective radionuclide in human serum. This was assessed by measuring the transfer of radionuclide from the complex to serum proteins over the course of 11 days.
In vitro stability of the radiolabeled metal complexes. The stability of the purified radiolabeled complexes was evaluated in human serum (Gemini Bioproducts, Woodland, Calif.) for up to 11 days. The serum stability of the radiolabeled complexes was assessed by measuring the transfer of the radionuclide from each complex to serum proteins using SE-HPLC methods. Radiolabeled complexes were diluted to an appropriate volume that allowed for preparation of multiple samples containing 5-10 μCi and were filter-sterilized using a Millex-GV 0.22 μm filter. This stock solution was then mixed with 1400 μL of sterile normal human serum. Aliquots (200 μL) were drawn and separated into individual tubes for subsequent analysis using aseptic technique. The samples were incubated at 37° C., and at designated intervals, subjected to analysis by SE-HPLC. Samples were loaded onto the HPLC and eluted with PBS, pH 7.4 isocratically at 1 mL/min. […] Radioactivity associated with a transfer to serum proteins generally appeared at ˜6 min.

[2] = In vitro serum stability of 205/6Bi-DEPA in human serum (SE-HPLC); assay type: in vitro ADME; set-up: Radiolabled Complex, in vitro serum stability (Table 1): unit not given here; details: for Radiolabled Complex, in vitro serum stability (Table 1): 37° C.
Description: The new ligand DEPA was radiolabeled with ^177Lu and ^205/6Bi (a surrogate of ^212Bi and ^213Bi) and the corresponding radiolabeled complexes were evaluated for in vitro serum stability as described previously. For comparison, DOTA was also radiolabeled with ^177Lu. DEPA and DOTA (0.25 M NH4OAc buffer, pH 4.0) was radiolabeled with ^177Lu at 45° C. for 0.5 h to afford ^177Lu-DEPA (Rf=0.6) and ^177Lu-DOTA (Rf=0.4) in the respective radiochemical yield of 90% and 95% as determined by radio-TLC. DEPA (0.25 M NH4OAc buffer, pH 5.0) was successfully radiolabeled with ^205/6Bi at room temperature for 1 h to afford ^205/6Bi-DEPA in 96% yield (radio-TLC). ^177Lu-DOTA, 177Lu-DEPA, and ^205/6Bi-DEPA formed were purified from unbound ^205/6Bi by ion-exchange chromatography using a Chelex-100 column (1 mL volume bed, 100-200 mesh, Na^+ form, Bio-Rad, Richmond, Calif.) eluted with PBS (pH 7.4). In vitro serum stability of the purified radiolabeled complexes was performed to determine if DEPA or DOTA radiolabeled with ^177Lu or ^205/6Bi remained stable without loss of the radionuclide in human serum. This was assessed by measuring the transfer of radionuclide from the complex to serum proteins. […] However, ˜10% of the radioactivity was released from ^177Lu-DOTA over 4 days.
In vitro serum stability of the radiolabeled metal complexes. An aliquot of 3.7 MBq of the purified ^177Lu-labeled ligands was added to 0.5 mL of mouse serum (Sigma, St. Louis, Mo.) and 0.1% NaN3. The resulting mixture was incubated at 37° C. for 96 h. Aliquots of 2 μL of the resulting mixture were analyzed by radio-TLC and HPLC at different time points, 0, 0.25, 0.5, 1, 2, 4, 6, 24, 48, and 96 h of incubation. The stability of purified ^205/6Bi-DEPA was evaluated in human serum (Gemini Bioproducts, Woodland, Calif.) for 14 days by measuring the transfer of the radionuclide from the complex to serum proteins as monitored by SE-HPLC. Radiolabeled complexes were diluted to an appropriate volume that allowed for preparation of multiple samples containing 5-10 μCi and filter-sterilized using a Millex-GV 0.22 μm filter. 140 μL of this stock solution was then mixed with 1400 μL of sterile normal human serum or saline. Aliquots (200 μL) were drawn and separated into individual tubes for subsequent analysis using aseptic technique. The samples were incubated at 37° C., and at designated intervals, subjected to analysis by SE-HPLC. Samples were loaded onto the HPLC and eluted with PBS, pH 7.4 isocratically at 1 mL/min. […] Radioactivity associated with a transfer to serum proteins generally appeared between ˜4.5-8 min.

[3] = Biodistribution of 205/6Bi-DEPA in normal athymic mice; assay type: in vivo
Description: Based on the promising data obtained from the AAIII based spectroscopic complexation kinetics and serum stability experiments, the stability of ^205/6Bi-DEPA was further evaluated by performing a biodistribution study in normal athymic mice as described previously. Blood levels and organ uptake of the radiolabeled complexes in mice were measured at five time points, 0.5, 1, 4, 8, and 24 h post-injection of ^205/6Bi-DEPA. […] Radioactivity that was detected in the blood and the organs was less than 2.44% ID/g at all points. At 24 h post injection, the % ID/g in the kidneys and spleen was 0.36±0.03% and 0.39±0.07%, respectively, which was slightly higher than that observed in other organs.

[4] = test system: HT29 cells; assay: Antiproliferative activity, MTS assay, HT29 cells; assay type: cell-based, Human; details: 72 h incubation
Description: Cell culture Human cervix HeLa cell line was obtained from ATCC (Rockville, Md.) and cultured in minimum essential medium (MEM) with L-glutamine (2 mM), Earle's BSS and sodium bicarbonate (1.5 g/L), supplemented with 10% fetal bovine serum (FBS), non-essential amino acids (0.1 mM), sodium pyruvate (1 mM) and antibiotic/antimycotic solution in a humidified atmosphere with 5% CO2 at 37° C. […] Lung fibroblast MRC-5 cell line was obtained from ATCC (Rockville, Md.) and cultured in ATCC formulated EMEM, supplemented with 10% fetal bovine serum (FBS) in a humidified atmosphere with 5% CO2 at 37° C.
(§1) Antiproliferative Activity. Cells were seeded onto 96-well plate at density of 2,000 cells for Hela cells or 5,000 cells for HT29 cells or 5,000 cells for MRC-5 per well in 0.1 mL complete medium and allowed to attach for 24 h. Varying concentrations of the test compounds in the final volume of 0.1 mL complete medium were then added in at least five series dilutions and incubated for 72 h. To measure cell proliferation, the Cell Titer 96 aqueous nonreactive cell proliferation assay (Promega Life Sciences, Madison, Wis.) was used according to the manufacturer's instructions. Briefly, MTS (2 mg/mL) and PMS (0.92 mg/ml) were mixed in a ratio of 20:1. An aliquot (20 μL) of the MTS/PMS mixture was added into each well, and the plate was incubated for 3 h at 37° C. Optical absorbance at 490 nm was then recorded with an enzyme-linked immunosorbent assay (ELISA) microtiter plate reader (Biotek). Each experiment was done at least in triplicate. Antiproliferative activity of the test compounds was expressed as the fraction of optical densities of treated the cells relative to the untreated solvent controls.^31 The data were plotted in GraphPad Prizm 3.0. Nonlinear regression analysis was used to determine IC50 values.
Cell culture. Human cervix HeLa cell line was obtained from ATCC (Rockville, Md.) and cultured in minimum essential medium (MEM) with L-glutamine (2 mM), Earle's BSS and sodium bicarbonate (1.5 g/L), supplemented with 10% fetal bovine serum (FBS), non-essential amino acids (0.1 mM), sodium pyruvate (1 mM) and antibiotic/antimycotic solution in a humidified atmosphere with 5% CO2 at 37° C.
as §1, with “activity.” for “Activity.”, “cells” for “cells or 5,000 cells for MRC-5”, “controls.” for “controls.^31”

[5] = test system: Hela cells; assay: Iron saturation experiment, Hela cell growth (MTS); assay type: cell-based, Human
Description: Cytotoxicity of the new chelators was measured in the HeLa and HT29 cancer cells and compared to that of the clinically used iron chelators DFO and DTPA. […] The preliminary cell culture experiments were performed to see ifNETA is an effective cytotoxic agent. […] In order to investigate the effect of the chelators on the cellular growth, the Hela cancer cells saturated with Fe(III)-citrate (50 μM) were incubated with each of the chelators (50 μM).
Iron Saturation Experiment Hela Cells were inoculated onto 96-well plates at density of 2,000 per well in 0.1 mL complete medium and incubated for 24 h. […] Control samples containing no ferric citriate were also tested. […] After the incubation, cells proliferation rates were evaluated by MTS assay.

O=C(O)CNC(Cc1ccc([N+](=O)[O-])cc1)CN1CCN(CC(=O)O)CCN(CC(=O)O)CC1.[203Pb] (centres unmarked) [^203Pb-C-NE3TA]
stability in human serum (in words) ([1]; 37° C., up to 11 days): no measurable loss of radioactivity
radionuclide dissociated from the complex ([1]; in 1 day): ~40%

O=C([O-])CN1CCN(CCN(CC(=O)[O-])CC(=O)[O-])CCN(CC(=O)[O-])CCN(CC(=O)[O-])CC1.[Bi+3] [^205/6Bi-DEPA]
Radiolabled Complex, in vitro serum stability (Table 1) ([2]; 0 h): 100
Radiolabled Complex, in vitro serum stability (Table 1) ([2]; 0.5 h): 100
Radiolabled Complex, in vitro serum stability (Table 1) ([2]; 1 h): 100
Radiolabled Complex, in vitro serum stability (Table 1) ([2]; 2 h): 100
Radiolabled Complex, in vitro serum stability (Table 1) ([2]; 4 h): 100
Radiolabled Complex, in vitro serum stability (Table 1) ([2]; 6 h): 100
Radiolabled Complex, in vitro serum stability (Table 1) ([2]; 24 h): 100
Radiolabled Complex, in vitro serum stability (Table 1) ([2]; 48 h): 100
Radiolabled Complex, in vitro serum stability (Table 1) ([2]; 96 h): 100
Radiolabled Complex, in vitro serum stability (Table 1) ([2]; 120 h): 100
Radiolabled Complex, in vitro serum stability (Table 1) ([2]; 192 h): 100
Radiolabled Complex, in vitro serum stability (Table 1) ([2]; 288 h): 100
Radiolabled Complex, in vitro serum stability (Table 1) ([2]; 336 h): 100
serum stability of 205/6Bi complex (in words) ([2]; 14 days): no radioactivity was released over 14 days; also recorded: very stable in human serum for 2 weeks
bone accumulation of the radioactivity ([3]; 0.5 h): 2.02±0.96 % ID/gm
bone accumulation of the radioactivity ([3]; 1 h): 0.38±0.09 % ID/gm
% ID/g in the kidneys ([3]; 24 h post injection): 0.36±0.03 % ID/g
% ID/g in the spleen ([3]; 24 h post injection): 0.39±0.07 % ID/g
Radioactivity detected in the blood and the organs ([3]; all time points, 0.5-24 h post-injection): less than 2.44 % ID/g
in vivo stability and clearance (in words) ([3]; normal athymic mice): essentially inert in vivo and rapidly cleared from the body

O=C(O)CN1CCN(CCN(CC(=O)O)CC(=O)O)CCN(CC(=O)O)CC1 [NETA]
IC50 [4]: 7.3 ± 1.5 µM
anti-proliferative activity compared to DFO ([5]; 50 μM, HeLa): three-fold increased anti-proliferative activity compared to DFO
effect on Hela cells saturated with Fe(III)-citrate (in words) ([5]; chelator 50 μM, Fe(III)-citrate 50 μM): almost no anti-proliferative activity
HeLa cancer cells died ([5]; free ligand 50 μM, no ferric citrate): ~80%
